Structures can show the parent of a compound that is named as a salt. Where two headings read alike, the source gives them in different places. Marks after values point to notes of the source that are not given here.
How the values were obtained:
[1] = Solubility of escitalopram and paroxetine in liquid lipids; assay type: physicochemical; conditions: 24 h stirring at 25°C, n = 3, mean ± SD; for solubility at 24 h: oil or lipid, thermodynamic from solid
Experimental: Briefly, 0.5 g of solid lipid Precirol® ATO 5 was melted in a controlled temperature water bath at 65°C. […] Regarding liquid lipids (oleic acid, Labrasol®, Labrafac™ PG, Lauroglycol™ 90, and Miglyol® 812 N), both drugs were dispersed in screw-capped tubes with the liquid compounds (0.5 ml each) and kept under mechanical stirring for 24 h at 25°C. […] An aliquot of the supernatant was diluted with the mobile phase, filtered through a 0.22-µm membrane, and analyzed. […] The HPLC-DAD apparatus and data acquisition were controlled by using Lab Solutions Software (Shimadzu Corporation, Tokyo, Japan). […] The mobile phase was composed of 20 mM phosphate buffer (pH 3.8 adjusted with orthophosphoric acid) and acetonitrile (80:20, v/v) pumped at a flow rate of 1.0 ml/min.

[2] = In vivo pharmacokinetics in plasma, brain and lung after IV, IN and IN + BorNLC co-administration; set-up: species or system CD-1 mice; conditions: for Cmax / Tmax / Kp / AUC(0-t): CD-1, mouse
Experimental: Healthy adult CD-1 mice (25–30 g) were acquired from Charles River Laboratories (L’Arbresle, France) and accommodated in a relative humidity of 55 ± 5%, a controlled temperature of 20 ± 2°C, and reversed 12 h light–dark cycles. The studies were always performed in the dark phase (active phase between 08h00 and 20h00). A period of at least 7 days was considered for the animals to become familiarized with the environment. Animals had ad libitum access to food (4RF21, Mucedola®, Italy) and tap water during the entire experiment period.
Before treatment, animals were anesthetized by intraperitoneal administration of a mixture of ketamine (100 mg/kg) and xylazine (10 mg/kg) to keep them immobile during IN or IV administration. Animals were randomly divided into 3 groups (n = 28) and subdivided into 7 time-points (n = 4). […] Briefly, Pluronic F-127 (18%, w/v) and Carbopol 974P (0.2%, w/v) were added to cold water, since the first guarantees the thermoreversible characteristic of the nasal gel ([Swamy and Abbas, 2012]) and the second increases the bioadhesive properties of the gel, thus increasing the residence time in the nasal cavity and improving the central delivery of antidepressant drugs. […] Anesthetized animals were instilled with 14–25 µl (2.38 mg/kg) of the gel with a polyurethane tube (24G x 19 mm) attached to a microliter syringe. Formulation delivery was performed into one of the nostrils, where the tube was inserted about 10 mm deep.
Animals were sacrificed by cervical dislocation and decapitation at 5, 15, 30, 60, 120, 240, and 480 min after administration, and heparinized tubes were used for blood collection. Blood samples were centrifuged at 1,252 g for 10 min at 4°C, and plasma supernatants were analyzed by HPLC-DAD. The mice brain and lungs were quickly removed and gently cleaned with a sterile gauze humidified with saline to remove adherent surface blood. Then, these organs were weighed and homogenized in NaCl 0.9% (3 ml/g of tissue) using a tissue homogenizer with a Teflon® pestle from Thomas Scientific (Swedesboro, NJ, United States).
Briefly, 300 μl of methanol were added to 200 μl of plasma, 200 μl of lung homogenate, or 400 μl of brain homogenate for protein precipitation. After two extractions with 700 μl of n-hexane:alcohol isoamyl (98:2, v/v) mixture, organic phases were evaporated. Last, following reconstitution with 100 μl of a mixture of 20 mM phosphate buffer pH 3.8 and acetonitrile (70:30, v/v), the plasma and lung homogenate samples were transferred to a 0.22-μm Costar® Spin-X® centrifugal filter (Corning, Inc., NY, United States) and centrifuged at 12,100 g for 3 min. All final samples were injected (20 µl) into the HPLC-DAD system, in accordance with the analytical conditions described in section 2.2.1. The detection wavelength to quantify the IS was set at 290 nm.
The remaining pharmacokinetic parameters were estimated by non-compartmental analysis using WinNonlin® version 6.4 software (Certara, Princeton, NJ). Plasma and tissue concentrations below the lower limit of quantification (LLOQ) of the analytical method were considered zero for the pharmacokinetic data analysis.
For both drugs and in all matrices, the area under the concentration–time curve from time zero (AUC) to the time of the last measurable drug concentration (AUCt) was calculated by the linear trapezoidal rule.
To evaluate drug distribution into the brain and lungs after administration, the ratios were determined based on the quotient AUCt(tissue)/AUCt(plasma). The drug targeting efficiency (DTE) was calculated following Eq. 6: DTE(%)=(AUCt(brain)/AUCt(plasma))IN/(AUCt(brain)/AUCt(plasma))IV×100 (6)
Finally, to evaluate the direct drug passage from the nose to the brain, the direct transport percentage (DTP) was determined applying Eq. 7: DTP(%)=AUCt(brain) IN−[(AUCt(brain) IV/AUCt(plasma) IV)×AUCt(plasma) IN]/AUCbrain IN×100 (7)

[3] = set-up: method as in Kreilgaard et al., 2008; conditions: single subcutaneous injection, three doses (escitalopram 0.240-3.90 mg/kg; paroxetine 0.270-4.40 mg/kg); ref Kreilgaard et al., 2008; cited from earlier work
P-glycoprotein (P-gp) = conditions: cited from earlier work
[4] = significant first-pass metabolism; no reference given; cited from earlier work
[5] = Lauroglycol 90 (liquid lipid), in Lauroglycol 90
[6] = oleic acid (liquid lipid), in oleic acid
[7] = brain, inhaled or intranasal, 2.38 mg/kg
[8] = lung, inhaled or intranasal, 2.38 mg/kg
[9] = plasma, inhaled or intranasal, 2.38 mg/kg
[10] = inhaled or intranasal, paroxetine, brain, IN free drug, 2.38 mg/kg
[11] = inhaled or intranasal, paroxetine, lung, IN free drug, 2.38 mg/kg
[12] = inhaled or intranasal, paroxetine, plasma, IN free drug, 2.38 mg/kg
[13] = paroxetine, brain, IV free drug, 2.38 mg/kg
[14] = paroxetine, lung, IV free drug, 2.38 mg/kg
[15] = paroxetine, plasma, IV free drug, 2.38 mg/kg
[16] = paroxetine, IN free drug vs IV, 2.38 mg/kg

## CN(C)CCC[C@@]1(c2ccc(F)cc2)OCc2cc(C#N)ccc21 [Escitalopram, escitalopram oxalate]
[1]; Labrafac PG (liquid lipid), in Labrafac PG, n.d. = not detected
  solubility at 24 h: 1340 ± 1120 µg/mL
[1]; Labrasol (liquid lipid), in Labrasol
  solubility at 24 h: 14700 ± 14000 µg/mL
[1]; [5]
  solubility at 24 h: 6910 ± 130 µg/mL
[1]; [6]
  solubility at 24 h: 840 ± 120 µg/mL
[2]; [7]
  Cmax: 133 ng/g
  Tmax: 60 min
[2]; brain, iv, 2.38 mg/kg
  Cmax: 511 ng/g
  Tmax: 15 min
[2]; brain/plasma, iv, 2.38 mg/kg, read-out: AUCtbrain/AUCtplasma
  Kp: 0.871
[2]; brain/plasma, other: intranasal (IN), 2.38 mg/kg, read-out: AUCtbrain/AUCtplasma
  Kp: 0.86
[2]; [8]
  Cmax: 2310 ng/g
  Tmax: 30 min
[2]; lung, iv, 2.38 mg/kg
  Cmax: 1020 ng/g
  Tmax: 60 min
[2]; lung/plasma, iv, 2.38 mg/kg, read-out: AUCtlung/AUCtplasma
  Kp: 2.45
[2]; lung/plasma, other: intranasal (IN), 2.38 mg/kg, read-out: AUCtlung/AUCtplasma
  Kp: 10.6
[2]; [9]
  AUC(0-t): 507 ng·h/mL
  Cmax: 550 ng/mL
  Tmax: 5 min
[2]; plasma, iv, 2.38 mg/kg
  AUC(0-t): 1150 ng·h/mL
  Cmax: 482 ng/mL
  Tmax: 5 min
[2]; escitalopram, brain, IN free drug, 2.38 mg/kg
  AUCt: 26.2 ^c µg.min/g
[2]; escitalopram, brain, IV free drug, 2.38 mg/kg
  AUCt: 59.8 ^c µg.min/g
[2]; escitalopram, lung, IN free drug, 2.38 mg/kg
  AUCt: 321 ^c µg.min/g
[2]; escitalopram, lung, IN free drug, 2.38 mg/kg, listed as escitalopram
  AUCt: 168 µg·min/g
[2]; escitalopram, lung, IV free drug, 2.38 mg/kg
  AUCt: 168 ^c µg.min/g
[2]; escitalopram, lung, IV free drug, 2.38 mg/kg, listed as escitalopram
  AUCt: 321 µg·min/g
[2]; escitalopram, lung, free IN vs BorNLC IN
  lung Cmax after free drug IN administration, times superior to BorNLC IN: 3.8 times
[2]; escitalopram, lung, free IN vs IV
  lung Cmax after free drug IN administration, times superior to IV: 2.3 times
[3]
  tmax in the plasma: 3.00 to 5.40 min

## Fc1ccc([C@@H]2CCNC[C@H]2COc2ccc3c(c2)OCO3)cc1 [Paroxetine, Paroxetine hydrochloride]
[1]; [5]
  solubility at 24 h: 13800 ± 1260 µg/mL
[1]; in Labrasol
  solubility: 24000 ± 30500 µg/mL
[1]; [6]
  solubility at 24 h: 1070 ± 580 µg/mL
[2]; brain/plasma, iv, 2.38 mg/kg, paroxetine, IV free drug, 2.38 mg/kg, read-out: AUCtbrain/AUCtplasma
  Kp: 0.35
[2]; brain/plasma, other: intranasal (IN), 2.38 mg/kg, paroxetine, IN free drug, 2.38 mg/kg, read-out: AUCtbrain/AUCtplasma
  Kp: 0.82
[2]; [10]
  Cmax: 283 ng/g
  Tmax: 120 min
[2]; [11]
  Cmax: 2820 ng/g
  Tmax: 60 min
[2]; [12]
  AUC(0-t): 1390 ng·h/mL
  Cmax: 696 ng/mL
[2]; lung/plasma, iv, 2.38 mg/kg, paroxetine, IV free drug, 2.38 mg/kg, read-out: AUCtlung/AUCtplasma
  Kp: 2.63
[2]; lung/plasma, other: intranasal, 2.38 mg/kg, paroxetine, IN free drug, 2.38 mg/kg, read-out: AUCtlung/AUCtplasma
  Kp: 8.4
[2]; [9]
  Tmax: 5 min
[2]; plasma, iv, 2.38 mg/kg
  Tmax: 5 min
[2]; [13]
  Cmax: 233 ng/g
  Tmax: 120 min
  AUCt: 34.6 ^c µg min/g
[2]; [14]
  Cmax: 1010 ng/g
  Tmax: 30 min
  AUCt: 257 ^c µg min/g
[2]; [15]
  AUC(0-t): 1630 ng·h/mL
  Cmax: 820 ng/mL
[2]; [16]
  DTE (drug targeting efficiency): 232%
  DTP (direct transport percentage): 56.9%
[2]; paroxetine, IN free drug, 2.38 mg/kg
  AUCtbrain/AUCtplasma: 0.821
[2]; paroxetine, IV free drug, 2.38 mg/kg
  AUCtbrain/AUCtplasma: 0.354
[2]; paroxetine, brain, IN free drug, 2.38 mg/kg
  AUCt: 68.2 ^c µg min/g
[2]; paroxetine, brain, IN vs IV
  higher brain exposure (given by AUCt) than that of IV injection: 49%
[2]; paroxetine, lung, IN free drug, 2.38 mg/kg
  AUCt: 699 ^c µg min/g
P-glycoprotein (P-gp); IC50 higher than therapeutic plasma concentrations, ref Hiemke et al., 2018
  P-gp IC50 relative to therapeutic plasma concentrations: about 150 fold
P-glycoprotein (P-gp); in vitro, ref Feng et al., 2008
  P-gp inhibition IC50: 10 µg/mL
[4]
  oral bioavailability: 30 to 60%
[3]
  tmax in the plasma: 4.80 to 5.40 min
